Measurements taken from patent US20130338228A1, “METHODS FOR FA[…] RECOVERY AFTER A PERIOD OF DISUSE USING BETA-HYDROXY-BETA-METHYLBUTYRATE” (ABBOTT LABORATORIES, priority 2010, published 2013).

Legend:
Type in all cases: in vivo, Fischer 344× Brown Norway rats
[1] = test system: satellite cells/muscle precursor cells; experiment: Activation of satellite cells by BrdU labeling during reloading
Description: (§1) Sixty-four aged (34 months of age) Fischer 344× Brown Norway rats are randomly assigned to a hind limb suspended (HS) group or a reloaded (R) group. The rats in each test group receive either: (1) 1 ml Ca-HMB (170 mg/ml distilled water); or (2) 1 ml of distilled water by gavage feeding per day. After one week, thirty-two rats (eight rats from the HS group receiving Ca-HMB; eight rats from the R group receiving Ca-HMB; eight rats from the HS group receiving water; and eight rats from the R group receiving water) are designated as part of the control groups (HS Control Group (16 rats) or R Control Group (16 rats)). […]
(§2) The remaining thirty-two rats (16 rats in HS Group and 16 rats in R Group) continue to receive either Ca-HMB or water and are subjected to hind limb suspension for 14 days. […] The suspension height is monitored and adjusted to prevent contact between the hind limb and any supportive surface of the cage. […]
Activated, proliferated satellite cells/muscle precursor cells were identified by immunofluorescence staining on BrdU and laminin as described previously (Siu 2005). […] The sections were finally stained with 4′,6-diamidino-2-phenylindole (DAPI) and examined under a fluorescence microscope with excitation wavelengths of 330-380 nm for DAPI blue fluorescence, 485-585 nm for Cy3 red fluorescence, and 450-490 nm for fluorescein green fluorescence. […]

[2] = test system: Bcl-2; experiment: Western immunoblot of Bcl-2 in hind limb muscles; settings: plantaris and soleus after either hind limb suspension or reloading (both conditions increase Bcl-2 by about 100%)
Description: as §1, §2
(§3) Approximately seventy-five […] of muscle is homogenized in ice-cold RIPA buffer (1% Triton x-100, 150 mM NaCl, 5 mM EDTA, 10 mM Tris; pH 7.4), containing protease inhibitors (P8340, Sigma-Aldrich, St. Louis, Mo.), and phosphatase inhibitors (P2850; P5726, Sigma-Aldrich). The muscle homogenates are centrifuged at 1000×g for 5 minutes at 4° C., and the protein content of the supernatant is measured (500-0116; BioRad, Hercules, Calif.). […]

[3] = Body weight of aged rats after hind limb suspension and reloading
Description: (§4) Sixty-four aged (34 months of age) Fischer 344× Brown Norway rats are randomly assigned to a hind limb suspended (HS) group or a reloaded (R) group. The rats in each test group receive either: (1) 1 ml Ca-HMB (170 mg/ml distilled water); or (2) 1 ml of distilled water by gavage feeding per day. After one week, thirty-two rats (eight rats from the HS group receiving Ca-HMB; eight rats from the R group receiving Ca-HMB; eight rats from the HS group receiving water; and eight rats from the R group receiving water) are designated as part of the control groups (HS Control Group (16 rats) or R Control Group (16 rats)). The control groups maintain normal mobility throughout the test period, and are allowed to move freely around their cages. Data is collected from the HS Control Group after 14 days from initiation of the study prior to and following sacrifice. Data is collected from the R Control Group after 28 days from initiation of the study prior to and following sacrifice.
(§5) The remaining thirty-two rats (16 rats in HS Group and 16 rats in R Group) continue to receive either Ca-HMB or water and are subjected to hind limb suspension for 14 days. For the hind limb suspension, tape is applied along the proximal one-third of the tail and then placed through a wire harness that is attached to a fishlike swivel at the top of a specially designed hind limb suspension cage. The suspension allowed the rats 360° of movement around the cage. Sterile gauze is wrapped around the tape and is subsequently covered with a thermoplastic material. […] The suspension height is monitored and adjusted to prevent contact between the hind limb and any supportive surface of the cage. […] The forelimbs maintain contact with a grid floor, which allows the animals to move, groom themselves, and obtain food and water freely.
(§6) After 14 days of hind limb suspension, the hind limbs are released. The R Group is further allowed normal cage ambulation for an additional 14 days and then data is collected prior to and following sacrifice.
(§7) Each animal is weighed at the beginning of the experiment, following 14 days of hind limb suspension and after 14 days of reloading. With the animals deeply anesthetized, the soleus and the plantaris muscles are removed from both limbs, then blotted, and weighed. Animals are euthanized following this procedure. A block obtained from the mid-belly of the muscle is embedded in optimal cutting temperature (OCT) compound (Tissue-Tek; Andwin Scientific, Addison, Ill.), snap frozen in liquid nitrogen-cooled isopentane, and stored at −80° C. The remainder of the muscle is snap frozen in liquid nitrogen and stored at −80° C. until needed for subsequent analyses.

[4] = test system: TUNEL positive myonuclei in plantaris and soleus muscles; experiment: Apoptotic myonuclei identified by TUNEL labeling (apoptotic index)
Description: as §4
The remaining thirty-two rats (16 rats in HS Group and 16 rats in R Group) continue to receive either Ca-HMB or water and are subjected to hind limb suspension for 14 days. For the hind limb suspension, tape is applied along the proximal one-third of the tail and then placed through a wire harness that is attached to a fishlike swivel at the top of a specially designed hind limb suspension cage. […] The suspension height is monitored and adjusted to prevent contact between the hind limb and any supportive surface of the cage. […]
10-μm-thick frozen cross sections from soleus and plantaris muscles are mounted on charged microscope slides (Fisher Scientific, Pittsburgh, Pa.). […] The number of TUNEL- and DAPI-positive nuclei that are immediately adjacent to, or beneath, the basal lamina is counted. Data is expressed as an apoptotic index, which is calculated by counting the number of TUNEL-positive nuclei divided by the total number of nuclei (i.e., DAPI-positive nuclei). The apoptotic index is determined from ˜1200 fibers, which are obtained from four non-overlapping regions of each tissue cross section.

[5] = test system: Bax; experiment: Western immunoblot of Bax in hind limb muscles
Description: as §1, §2, §3

[6] = test system: soleus and plantaris muscle fibers; experiment: Muscle fiber cross sectional area (CSA) by planimetry
Description: as §4, §5, §6
Muscle fiber cross sectional area (CSA) is determined by planimetry from 750-1200 fibers that are obtained from four non-overlapping regions of each tissue cross-section is stained for lamina. Fiber CSA is calculated by the Image J software.

[7] = test system: soleus and plantaris muscles; experiment: Muscle wet weight after hind limb suspension and reloading
Description: as §4, §5, §6, §7

[8] = test system: cleaved caspase-3; experiment: Western immunoblot of cleaved caspase-3 in hind limb muscles
Description: as §1, §2, §3

[9] = test system: cleaved caspase-9; experiment: Western immunoblot of cleaved caspase-9 in hind limb muscles; settings: plantaris and soleus muscles after both hind limb suspension and reloading, vs water-treated
Description: as §1, §2, §3

[10] = test system: plantar flexor muscle group; experiment: Maximal isometric force measurement after hind limb suspension and reloading
Description: as §4
The remaining thirty-two rats (16 rats in HS Group and 16 rats in R Group) continue to receive either Ca-HMB or water and are subjected to hind limb suspension for 14 days. For the hind limb suspension, tape is applied along the proximal one-third of the tail and then placed through a wire harness that is attached to a fishlike swivel at the top of a specially designed hind limb suspension cage. The suspension allowed the rats 360° of movement around the cage. […] The suspension height is monitored and adjusted to prevent contact between the hind limb and any supportive surface of the cage. […]
Force measurements: All force measurements are made while the animals are anesthetized with 98% oxygen and 2% isoflurane gas. […] The maximal isometric force of the plantar flexor muscle group is evaluated by stimulating the tibial nerve using supramaximal square wave pulses that are 4 V, 100 Hz for a duration of 3 seconds using a SD9 stimulator (Grass Medical Instruments, Quincy, Mass.). Maximal force is determined using Labview based software. […]

[11] = plantaris and soleus muscles after both hind limb suspension and reloading, vs water-treated
[12] = HS induced, stated for both HMB and vehicle-treated animals, P<0.001

CC(C)(O)CC(=O)O [HMB, beta-hydroxy-beta-methylbutyrate]
number of BrdU positive nuclei relative to vehicle-treated rats ([1]; during recovery from muscle disuse): almost twice the number | number of BrdU-positive nuclei to total nuclei ([1]; soleus, 14 day recovery period, mean+/−SE, p=0.001 vs control): 8.1+/−2% | Bcl-2 protein, difference between HMB and water-treated muscles [2]: may not be a significant difference | body weight lowered by hind limb suspension ([3]; after 14 days of hind limb suspension, stated for both the HMB and water-treated groups): about 15% | decrease in body weight compared to the body weight of control animals ([3]; after 14 days of reloading): 4% | body weight reduced relative to the first experimental day ([3]; control rats (normal mobility) treated for five weeks): 7% | body weight reduced relative to the first experimental day ([3]; control rats (normal mobility) treated for three weeks): 1.3% | increase of apoptotic index by HS compared to ambulatory control animals, plantaris ([4]; after HS, p<0.05): 3.0 fold | increase of apoptotic index by HS compared to ambulatory control animals, soleus ([4]; after HS, p<0.05): 1.8 fold | effect on TUNEL labeling in myonuclei of reloaded muscles ([4]; reloaded plantaris and soleus muscles): continued to suppress TUNEL labeling | Bax protein abundance in control muscles ([5]; control muscles of ambulatory animals (HS Con and R Con), FIG. 7B): reduces the protein abundance | Bax protein abundance [5, 11]: suppresses the protein abundance | HS-induced decrease in fiber CSA, plantaris ([6]; after HS, p<0.05 vs vehicle): 26.4% | HS-induced decrease in fiber CSA, soleus ([6]; after HS, p<0.05 vs vehicle): 32.5% | frequency of fibers<1500 μm^2 ([6]; plantaris and soleus, recovered for 14 days following HS, Chi-squared analyses): significantly greater in the plantaris and soleus muscles of vehicle-treated animals as compared to HMB-treated animals | effect on fiber CSA after reloading as compared to HS ([6]; plantaris or soleus muscles, after 14 days of reloading): did not further improve | decrease in wet weight of the plantaris muscle [7, 12]: 19% | decrease in wet weight of the soleus muscle [7, 12]: 15% | effect on extent of HS-induced atrophy (muscle wet weight) ([7]; after 14 days of HS, relative to vehicle): did not significantly reduce | effect on plantaris muscle weight ([7]; after 14 days of reloading relative to vehicle-treated animals): significantly improved | effect against HS-induced loss in the soleus muscle (wet weight) ([7]; after HS, relative to vehicle-treated animals): did not provide protective effect | cleaved caspase-3 protein abundance in control muscles ([8]; control muscles of ambulatory animals (HS Con and R Con), FIG. 9B): reduces the protein abundance | cleaved caspase-3 protein abundance [8, 11]: suppresses the protein abundance | cleaved caspase-9 protein abundance [9]: suppresses the protein abundance | reduction of maximal in vivo plantarflexor isometric force by hind limb suspension ([10]; after 14 days of hind limb suspension): 23.7% | loss in maximal isometric plantarflexor force compared to isometric force in control animals ([10]; after reloading, P<0.01 vs water-treated rats): 27.3% | effect on loss of force ([10]; hind limb suspension and reloading): attenuate the loss of force
